Counter-ions that a name gives are not always drawn. Like-named read-outs stand apart in the source and are kept apart here.
Tests used:
[1] = tested on: OXA-232 producing Klebsiella pneumoniae; assay: Broth-microdilution MIC (CLSI M07-A11) against clinical isolates; format: cell-based; parameters: Drug concentration: unit: mg/L; conditions: for MIC50 / MIC90: Klebsiella pneumoniae; for Mode: mode of MIC; for Drug concentration: unit not given in Table 3
Excerpt: (§1) As recommended by CLSI (Clinical and Laboratory Standards Institute) M07-A11 (2018 edition), the Broth-microdilution method is adopted to determine the minimum inhibitory concentration (MIC) of ceftobiprole and zidebactam against clinical isolates. It should be noted that, in the present disclosure, MIC50 refers to the minimum drug concentration that inhibits the growth of 50% of the tested bacteria, and MIC90 refers to the minimum drug concentration that inhibits the growth of 90% of the tested bacteria.
(§2) Antibacterial drug: ceftobiprole, manufacturer: Shenyang Sanjiu Pharmaceutical, content: 92.1%, batch number: YF/BALP141/000. Zidebactam, manufacturer: Target M01 company, batch number: 149661. Zidebactam, as described above, the English name is Zidebactam, and the chemical name is: (2S,5R)-7-oxo-2-(2-((R)-piperidine-3-carbonyl)hydrazine-1-carbonyl)-1,6-diazabicyclo[3.2.1]octan-6-yl hydrogen sulfate.
(§3) Tested strains: a total of 24 genotypic strains producing KPC or OXA β-lactamase. Specifically, the tested strains include 24 strains of Klebsiella pneumoniae, including 12 KPC-2 producing strains and 12 OXA-232 producing strains.
(§4) Quality control strains: Escherichia coli ATCC 25922, (KPC-2 producing) Klebsiella pneumoniae ATCC BAA-1705, and (NDM-1 producing) Klebsiella pneumoniae ATCC BAA-2146.
(§5) Medium: cation-adjusted Mueller-Hinton broth (CAMHB), a product of BBL Company, USA.
(§6) Inoculum size: Pure isolated colonies were adjusted with normal saline to 0.5 McFarland turbidity. After appropriate dilution, the suspension was added to the wells of a 96-well U-bottom microplate (containing 50 µL antibacterial drug solution). The inoculum size was 5 × 10^5 CFU/mL.
(§7) Culture conditions: air environment, 35°C ± 2°C, 16 to 20 hours.
(§8) Preparation of Antibacterial Drug Solution : Ceftobiprole and zidebactam were taken separately, dissolution and dilution were performed according to the antibacterial drug reference to the CLSI standards and the drug package insert, A1 to A6, a total of 6 groups of antibacterial drug solutions, were prepared, among which, group A1 was the control group containing solely the single agent ceftobiprole, and group A2 was the control group containing solely the single agent zidebactam. Different antibacterial drug solutions with ceftobiprole concentrations ranging from 128 mg/L to 0.06 mg/L were respectively included in groups A1 and A3 to A6, and different antibacterial drug solutions with zidebactam concentrations ranging from 128 mg/L to 0.06 mg/L were included in group A2. The specific concentrations within the range of 128 mg/L to 0.06 mg/L in groups A1 to A6 were respectively 128 mg/L, 64 mg/L, 32 mg/L, 16 mg/L, 8 mg/L, 4 mg/L, 2 mg/L, 1 mg/L, 0.5 mg/L, 0.25 mg/L, 0.125 mg/L, or 0.06 mg/L, respectively. Table 1. Concentrations of ceftobiprole/zidebactam contained in the antibacterial drug solutions of groups A1 to A6
(§9) Experimental results: Currently, there are no established CLSI or EUCAST breakpoints for ceftobiprole/β-lactamase inhibitor. Therefore, the antibacterial activity of ceftobiprole/β-lactamase inhibitor is evaluated in accordance with the standards for ceftobiprole. WHONET 5.6 software is used to perform statistical analysis on the results of antibacterial susceptibility test. The fractional inhibitory concentration index (FIC) for the combination of ceftobiprole and zidebactam is calculated according to Equation (1). FIC index = (MIC of drug A in combination)/(MIC of drug A alone) + (MIC of drug B in combination)/(MIC of drug B alone) [formula]
(§10) In Equation (1), drug A is ceftobiprole, and drug B is zidebactam. […] Table 2. In vitro antibacterial activity of ceftobiprole/zidebactam against the tested bacteria in Example 1 […]

[2] = tested on: KPC-2 producing Klebsiella pneumoniae; assay: as above; format: cell-based; parameters: Drug concentration: unit: mg/L; conditions: for Mode: mode of MIC; for Drug concentration: unit not given in Table 3
Excerpt: as §1, §2, §3, §4, §5, §6, §7, §8, §9, §10

[3] = 12 strains, MIC = ceftobiprole concentration (groups A2, B2, C2, D2, E2: inhibitor alone)
[4] = strain 20-W4-001 (kpn, OXA-232)
[5] = strain 20-W4-002 (kpn, OXA-232)
[6] = strain 20-W4-003 (kpn, OXA-232)
[7] = strain 20-W4-004 (kpn, OXA-232)
[8] = strain 20-W4-005 (kpn, OXA-232)
[9] = strain 20-W4-007 (kpn, OXA-232)
[10] = strain 20-W4-008 (kpn, OXA-232)
[11] = strain 20-W4-009 (kpn, OXA-232)
[12] = strain 20-W4-010 (kpn, OXA-232)
[13] = strain 20-W4-011 (kpn, OXA-232)
[14] = strain 20-W4-012 (kpn, OXA-232)
[15] = strain 20-W4-013 (kpn, OXA-232)
[16] = 12 strains, MIC = ceftobiprole concentration (groups A2, B2, C2, D2, E2: inhibitor alone), listed as Group Al
[17] = Klebsiella pneumoniae, 12 strains, MIC = ceftobiprole concentration (groups A2, B2, C2, D2, E2: inhibitor alone), read-out: MIC50
[18] = Klebsiella pneumoniae, 12 strains, MIC = ceftobiprole concentration (groups A2, B2, C2, D2, E2: inhibitor alone), read-out: MIC90

SMILES: Nc1nc(/C(=N/O)C(=O)N[C@@H]2C(=O)N3C(C(=O)O)=C(/C=C4\CCN([C@@H]5CCNC5)C4=O)CS[C@H]23)ns1 [Group A1, (6R,7R)-7-((Z)-2-(5-amino-1,2,4-thiadiazol-3-yl)-2-(hydroxyimino)acetamido)-8-oxo-3-((E)-((R)-2-oxo-[1,3'-bipyrrolidin]-3-ylidene)methyl)-5-thia-1-azabicyclo[4.2.0]oct-2-ene-2-carboxylic acid]
- MIC range [1, 3]: >128 µg/mL
- MIC50 [1, 3]: ≥ 128 µg/mL
- MIC90 [1, 3]: ≥ 128 µg/mL
- Cumulative inhibition rate (%) ([1]; MIC >128 mg/L): 100%
- Cumulative number of strains ([1]; MIC >128 mg/L): 12
- Number of strains ([1]; MIC >128 mg/L): 12
- Mode ([1]; 12 strains): >128 mg/L
- Drug concentration [1, 4]: >128
- Drug concentration [1, 5]: >128
- Drug concentration [1, 6]: >128
- Drug concentration [1, 7]: >128
- Drug concentration [1, 8]: >128
- Drug concentration [1, 9]: >128
- Drug concentration [1, 10]: >128
- Drug concentration [1, 11]: >128
- Drug concentration [1, 12]: >128
- Drug concentration [1, 13]: >128
- Drug concentration [1, 14]: >128
- Drug concentration [1, 15]: >128
- antibacterial activity ([1]; verdict in words): no antibacterial activity
- MIC range [2, 3]: >128 µg/mL
- MIC50 [2, 16]: >128 µg/mL
- MIC90 [2, 16]: >128 µg/mL
- MIC50 [2, 17]: ≥ 128 µg/mL
- MIC90 [2, 18]: ≥ 128 µg/mL
- Cumulative inhibition rate (%) ([2]; MIC >128 mg/L): 100%
- Cumulative number of strains ([2]; MIC >128 mg/L): 12
- Number of strains ([2]; MIC >128 mg/L): 12
- Mode ([2]; 12 strains): >128 mg/L
- Drug concentration ([2]; strain 18-W09-043 (kpn, KPC-2)): >128
- Drug concentration ([2]; strain 18-W09-045 (kpn, KPC-2)): >128
- Drug concentration ([2]; strain 18-W09-046 (kpn, KPC-2)): >128
- Drug concentration ([2]; strain 18-W09-047 (kpn, KPC-2)): >128
- Drug concentration ([2]; strain 18-W09-049 (kpn, KPC-2)): >128
- Drug concentration ([2]; strain 18-W09-050 (kpn, KPC-2)): >128
- Drug concentration ([2]; strain 18-W09-051 (kpn, KPC-2)): >128
- Drug concentration ([2]; strain 18-W13-043 (kpn, KPC-2)): >128
- Drug concentration ([2]; strain 18-W13-044 (kpn, KPC-2)): >128
- Drug concentration ([2]; strain 18-W13-045 (kpn, KPC-2)): >128
- Drug concentration ([2]; strain 18-W13-046 (kpn, KPC-2)): >128
- Drug concentration ([2]; strain 18-W13-047 (kpn, KPC-2)): >128
- antibacterial activity ([2]; verdict in words): no antibacterial activity

SMILES: O=C(NNC(=O)[C@@H]1CC[C@@H]2CN1C(=O)N2OS(=O)(=O)O)[C@@H]1CCCNC1 [Group A2, (2S,5R)-7-oxo-2-(2-((R)-piperidine-3-carbonyl)hydrazine-1-carbonyl)-1,6-diazabicyclo[3.2.1]octan-6-yl hydrogen sulfate]
- MIC50 [1, 3]: 64 µg/mL
- MIC90 [1, 3]: > 128 µg/mL
- Cumulative inhibition rate (%) ([1]; MIC 1 mg/L): 8.3%
- Cumulative number of strains ([1]; MIC 1 mg/L): 1
- Number of strains ([1]; MIC 1 mg/L): 1
- Cumulative inhibition rate (%) ([1]; MIC 2 mg/L): 16.7%
- Cumulative number of strains ([1]; MIC 2 mg/L): 2
- Number of strains ([1]; MIC 2 mg/L): 1
- Cumulative inhibition rate (%) ([1]; MIC 4 mg/L): 33.3%
- Cumulative number of strains ([1]; MIC 4 mg/L): 4
- Number of strains ([1]; MIC 4 mg/L): 2
- Cumulative inhibition rate (%) ([1]; MIC 8 mg/L): 41.7%
- Cumulative number of strains ([1]; MIC 8 mg/L): 5
- Number of strains ([1]; MIC 8 mg/L): 1
- Cumulative inhibition rate (%) ([1]; MIC 64 mg/L): 50%
- Cumulative number of strains ([1]; MIC 64 mg/L): 6
- Number of strains ([1]; MIC 64 mg/L): 1
- Cumulative inhibition rate (%) ([1]; MIC 128 mg/L): 66.7%
- Cumulative number of strains ([1]; MIC 128 mg/L): 8
- Number of strains ([1]; MIC 128 mg/L): 2
- Cumulative inhibition rate (%) ([1]; MIC >128 mg/L): 100%
- Cumulative number of strains ([1]; MIC >128 mg/L): 12
- Number of strains ([1]; MIC >128 mg/L): 4
- Mode ([1]; 12 strains): >128 mg/L
- Drug concentration [1, 4]: >128
- Drug concentration [1, 5]: >128
- Drug concentration [1, 6]: 4
- Drug concentration [1, 7]: >128
- Drug concentration [1, 8]: 128
- Drug concentration [1, 9]: 2
- Drug concentration [1, 10]: 64
- Drug concentration [1, 11]: 128
- Drug concentration [1, 12]: 1
- Drug concentration [1, 13]: 8
- Drug concentration [1, 14]: >128
- Drug concentration [1, 15]: 4
- MIC50 [2, 17]: > 128 µg/mL
- MIC90 [2, 18]: > 128 µg/mL
- Cumulative inhibition rate (%) ([2]; MIC 1 mg/L): 8.3%
- Cumulative number of strains ([2]; MIC 1 mg/L): 1
- Number of strains ([2]; MIC 1 mg/L): 1
- Cumulative inhibition rate (%) ([2]; MIC 128 mg/L): 41.7%
- Cumulative number of strains ([2]; MIC 128 mg/L): 5
- Number of strains ([2]; MIC 128 mg/L): 4
- Cumulative inhibition rate (%) ([2]; MIC >128 mg/L): 100%
- Cumulative number of strains ([2]; MIC >128 mg/L): 12
- Number of strains ([2]; MIC >128 mg/L): 7
- Mode ([2]; 12 strains): >128 mg/L
- Drug concentration ([2]; strain 18-W09-043 (kpn, KPC-2)): >128
- Drug concentration ([2]; strain 18-W09-045 (kpn, KPC-2)): >128
- Drug concentration ([2]; strain 18-W09-046 (kpn, KPC-2)): 128
- Drug concentration ([2]; strain 18-W09-047 (kpn, KPC-2)): 128
- Drug concentration ([2]; strain 18-W09-049 (kpn, KPC-2)): >128
- Drug concentration ([2]; strain 18-W09-050 (kpn, KPC-2)): 128
- Drug concentration ([2]; strain 18-W09-051 (kpn, KPC-2)): >128
- Drug concentration ([2]; strain 18-W13-043 (kpn, KPC-2)): >128
- Drug concentration ([2]; strain 18-W13-044 (kpn, KPC-2)): >128
- Drug concentration ([2]; strain 18-W13-045 (kpn, KPC-2)): 128
- Drug concentration ([2]; strain 18-W13-046 (kpn, KPC-2)): >128
- Drug concentration ([2]; strain 18-W13-047 (kpn, KPC-2)): 1

— patent EP4781993A1, “ANTIBACTERIAL COMPOSITION AND ANTIBACTERIAL DRUG” (Shenzhen China Resources Gosun Pharmaceuticals Co., Ltd., priority 2023, dated 2025)
